Data published in US20180179198A1, “TRICYCLIC MODULATORS OF TNF SIGNALING” (AbbVie Inc., priority 2015, published 2018).
pIC50: −log10 of the molar value.

target: TNFα trimer (Homo sapiens, UniProt P01375); test: TNFα FP Competitive Binding Assay; details: fluorescence polarization competition; 20 nM TNFα trimer, 1 nM OregonGreen488 probe; read-out: TNF IC50 (TNFα FP binding assay IC50)
Outline: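 Compounds, 12-point 1:3 dilutions topping at 100 μM (2.0% DMSO) or 338 μM (3.4% DMSO) final, compete with 1 nM fluorescent probe for 20 nM TNFα trimer in HEPES/NaCl/EDTA/Triton buffer. After 18-24 h incubation at 37 °C plus 1 h rt equilibration, background-subtracted polarization is read and fitted with variable slope.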

TNFα trimer, sequence (P01375 77-233 limits assumed): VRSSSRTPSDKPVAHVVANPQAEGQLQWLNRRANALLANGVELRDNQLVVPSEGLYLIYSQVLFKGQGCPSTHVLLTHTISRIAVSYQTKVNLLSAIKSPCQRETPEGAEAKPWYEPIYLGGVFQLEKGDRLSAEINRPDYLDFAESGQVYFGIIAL

| Compound | pIC50 |
| --- | --- |
| c1ccc(C2OCCc3nc4ccc(-c5cnc(N6CCOCC6)nc5)nn4c32)cc1 (centres unmarked) [Example 56, 2-(2-morpholinopyrimidin-5-yl)-9-phenyl-7,9-dihydro-6H-pyrano[4′,3′:4,5]imidazo[1,2-b]pyridazine] | 5.00 to 6.00 |
| c1ccc2c(c1)OCCC21COCc2nc3ccc(-c4cnc(N5CCNCC5)nc4)nc3n21 (centres unmarked) [Example 59, 2′-(2-(Piperazin-1-yl)pyrimidin-5-yl)-6′H,8′H-spiro[chromane-4,9′-pyrido[3′,2′:4,5]imidazo[2,1-c][1,4]oxazine]] | 5.00 to 6.00 |
| c1ccc2c(c1)OCCC21COCc2nc3ccc(-c4cnc(NC5CCOC5)nc4)nc3n21 (centres unmarked) [Example 60, 5-(6′H,8′H-Spiro[chromane-4,9′-pyrido[3′,2′:4,5]imidazo[2,1-c][1,4]oxazin]-2′-yl)-N-(tetrahydrofuran-3-yl)pyrimidin-2-amine] | 5.00 to 6.00 |
| c1ccc([C@H]2CCc3nc4ccc(-c5ccnc(OCC6CCOCC6)c5)nc4n32)cc1 [Example 61, (R)-8-Phenyl-2-(2-((tetrahydro-2H-pyran-4-yl)methoxy)pyridin-4-yl)-7,8-dihydro-6H-pyrrolo[2′,1′:2,3]imidazo[4,5-b]pyridine] | 5.00 to 6.00 |
| CC1(C)C=C(c2ccc3nc4n(c3n2)[C@@H](c2ccccc2)CC4)CN1 [Example 62] | 4.00 to 5.00 |
| CC(C)(O)c1ncc(-c2ccc3nc4n(c3n2)C(c2ccccc2)C2CC4C2)cn1 (centres unmarked) [Example 63, 2-(5-(9-Phenyl-6,7,8,9-tetrahydro-6,8-methanoimidazo[1,2-a:5,4-b′]dipyridin-2-yl)pyrimidin-2-yl)propan-2-ol] | 5.00 to 6.00 |
| OC1CCN(c2ncc(-c3ccc4nc5n(c4n3)C(c3ccccc3)C3CC5C3)cn2)CC1 (centres unmarked) [Example 64, 1-(5-(9-Phenyl-6,7,8,9-tetrahydro-6,8-methanoimidazo[1,2-a:5,4-b′]dipyridin-2-yl)pyrimidin-2-yl)piperidin-4-ol] | 5.00 to 6.00 |
| CC1(C)C=C(c2ccc3nc4n(c3n2)C2(COC4)COc3ccccc32)CN1 (centres unmarked) [Example 65, 2′-(5,5-Dimethyl-2,5-dihydro-1H-pyrrol-3-yl)-6′,8′-dihydro-2H-spiro[benzofuran-3,9′-pyrido[3′,2′:4,5]imidazo[2,1-c][1,4]oxazine]] | 5.00 to 6.00 |
| c1ccc2c(c1)OCC21COCc2nc3ccc(-c4cnc(N5CCNCC5)nc4)nc3n21 (centres unmarked) [Example 66, 2′-(2-(Piperazin-1-yl)pyrimidin-5-yl)-2H,6′H,8′H-spiro[benzofuran-3,9′-pyrido[3′,2′:4,5]imidazo[2,1-c][1,4]oxazine]] | 5.00 to 6.00 |
| CC(C)(O)c1ncc(-c2ccc3nc4n(c3n2)C2(COC4)CC(=O)c3ccccc32)cn1 (centres unmarked) [Example 69, 2′-(2-(2-Hydroxypropan-2-yl)pyrimidin-5-yl)-6′,8′-dihydrospiro[indene-1,9′-pyrido[3′,2′:4,5]imidazo[2,1-c][1,4]oxazin]-3(2H)-one] | 5.00 to 6.00 |
| CC(C)(O)c1ncc(-c2ccc3nc4n(c3n2)[C@@H](c2ccccc2)[C@@H]2C[C@H]4O2)cn1 [Example 70, 2-(5-((6R,8S,9S)-9-Phenyl-6,7,8,9-tetrahydro-6,8-epoxyimidazo[1,2-a:5,4-b′]dipyridin-2-yl)pyrimidin-2-yl)propan-2-ol] | 4.00 to 5.00 |
| OC1CCN(c2ncc(-c3ccc4nc5n(c4n3)[C@@H](c3ccccc3)[C@@H]3C[C@H]5O3)cn2)CC1 [Example 71, 1-(5-((6R,8S,9S)-9-Phenyl-6,7,8,9-tetrahydro-6,8-epoxyimidazo[1,2-a:5,4-b′]dipyridin-2-yl)pyrimidin-2-yl)piperidin-4-ol] | 4.00 to 5.00 |
| CC(C)(O)c1ncc(-c2ccc3nc4n(c3n2)C2(CCc3ccccc32)COC4O)cn1 (centres unmarked) [Example 72, 2′-(2-(2-Hydroxypropan-2-yl)pyrimidin-5-yl)-2,3-dihydro-6′H,8′H-spiro[indene-1,9′-pyrido[3′,2′:4,5]imidazo[2,1-c][1,4]oxazin]-6′-ol] | 5.00 to 6.00 |
| C1=C(c2ccc3nc4n(c3n2)C2(COC4)COc3ccccc32)CCN(c2ccncn2)C1 (centres unmarked) [Example 73, 2′-(1-(Pyrimidin-4-yl)-1,2,3,6-tetrahydropyridin-4-yl)-2H,6′H,8′H-spiro[benzofuran-3,9′-pyrido[3′,2′:4,5]imidazo[2,1-c][1,4]oxazine]] | 5.00 to 6.00 |
| C1=C(c2ccc3nc4n(c3n2)[C@@H](c2ccccc2)CC4)CCN(c2ccncn2)C1 [Example 76, (R)-8-Phenyl-2-(1-(pyrimidin-4-yl)-1,2,3,6-tetrahydropyridin-4-yl)-7,8-dihydro-6H-pyrrolo[2′,1′:2,3]imidazo[4,5-b]pyridine] | 5.00 to 6.00 |

Results, then the compound that gave them:

| pIC50 | Compound |
| --- | --- |
| > 6.00 | OC1CCC(Oc2cc(-c3ccc4nc5n(c4n3)C3(COC5)COc4ccccc43)ccn2)CC1 (centres unmarked) [Example 54, 4-((4-(6′,8′-dihydro-2H-spiro[benzofuran-3,9′-pyrido[3′,2′:4,5]imidazo[2,1-c][1,4]oxazin]-2′-yl)pyridin-2-yl)oxy)cyclohexanol] |
| > 6.00 | OC1CCN(c2ncc(-c3nc4c(cc3F)nc3n4[C@@H](c4ccccc4)CC3)cn2)CC1 [Example 55, (R)-1-(5-(3-fluoro-8-phenyl-7,8-dihydro-6H-pyrrolo[2′,1′:2,3]imidazo[4,5-b]pyridin-2-yl)pyrimidin-2-yl)piperidin-4-ol] |
| > 6.00 | COc1ccccc1C1CCOc2nc3ccc(-c4ccnc(O[C@H]5CC[C@H](O)CC5)c4)cn3c21 (stereo partly drawn) [Example 57, trans-4-((4-(4-(2-Methoxyphenyl)-3,4-dihydro-2H-pyrano[2′,3′:4,5]imidazo[1,2-a]pyridin-7-yl)pyridin-2-yl)oxy)cyclohexanol] |
| > 6.00 | C[C@H]1CN(c2ncc(-c3ccc4nc5n(c4n3)C3(COC5)COc4ccccc43)cn2)CCN1C(=O)CO (stereo partly drawn) [Example 67, 1-((2S)-4-(5-(2H,6′H,8′H-Spiro[benzofuran-3,9′-pyrido[3′,2′:4,5]imidazo[2,1-c][1,4]oxazin]-2′-yl)pyrimidin-2-yl)-2-methylpiperazin-1-yl)-2-hydroxyethan-1-one] |
| > 6.00 | CC(C)(O)c1ncc(-c2ccc3nc4n(c3n2)C2(CCc3ccccc32)COC4)cn1 (centres unmarked) [Example 68, 2-(5-(2,3-Dihydro-6′H,8′H-spiro[indene-1,9′-pyrido[3′,2′:4,5]imidazo[2,1-c][1,4]oxazin]-2′-yl)pyrimidin-2-yl)propan-2-ol] |
| > 6.00 | O[C@H]1CC[C@H](Oc2cc(-c3ccc4nc5n(c4n3)[C@@]3(COC5)COc4ccccc43)ccn2)CC1 [Example 74, (1S,4r)-4-((4-((S)-6′,8′-Dihydro-2H-spiro[benzofuran-3,9′-pyrido[3′,2′:4,5]imidazo[2,1-c][1,4]oxazin]-2′-yl)pyridin-2-yl)oxy)cyclohexanol] |
| > 6.00 | C[C@H]1CN(c2ncc(-c3ccc4nc5n(c4n3)[C@@]3(COC5)COc4ccccc43)cn2)CCN1C(=O)CO [Example 75, 1-((S)-4-(5-((S)-6′,8′-Dihydro-2H-spiro[benzofuran-3,9′-pyrido[3′,2′:4,5]imidazo[2,1-c][1,4]oxazin]-2′-yl)pyrimidin-2-yl)-2-methylpiperazin-1-yl)-2-hydroxyethanone] |
| > 6.00 | CC1(c2ccccc2)CCc2nc3ccc(-c4cnc(N5CCC(O)CC5)nc4)nc3n21 (centres unmarked) [Example 77, 1-(5-(8-Methyl-8-phenyl-7,8-dihydro-6H-pyrrolo[2′,1′:2,3]imidazo[4,5-b]pyridin-2-yl)pyrimidin-2-yl)piperidin-4-ol] |
